Test results: patent publication US5468615A, “Binding assay employing a synthetic gene for D4 dopamine receptors” (The Upjohn Company, priority 1993, dated 1995)

How the values were obtained:
synthetic D4 receptor [1] = target: T1, synthetic D4 receptor (Homo sapiens, UniProt P21917, DEL265-296); test: (3H)spiperone radioligand binding, membranes of LacI (CHO) cells expressing synthetic D4 receptor (line D4-19); set-up: expressed in transfected cells; conditions: Scatchard transformation of saturation binding; line D4-19, IPTG induced
T1 sequence (P21917 with tags, fused parts or gaps DEL271-302): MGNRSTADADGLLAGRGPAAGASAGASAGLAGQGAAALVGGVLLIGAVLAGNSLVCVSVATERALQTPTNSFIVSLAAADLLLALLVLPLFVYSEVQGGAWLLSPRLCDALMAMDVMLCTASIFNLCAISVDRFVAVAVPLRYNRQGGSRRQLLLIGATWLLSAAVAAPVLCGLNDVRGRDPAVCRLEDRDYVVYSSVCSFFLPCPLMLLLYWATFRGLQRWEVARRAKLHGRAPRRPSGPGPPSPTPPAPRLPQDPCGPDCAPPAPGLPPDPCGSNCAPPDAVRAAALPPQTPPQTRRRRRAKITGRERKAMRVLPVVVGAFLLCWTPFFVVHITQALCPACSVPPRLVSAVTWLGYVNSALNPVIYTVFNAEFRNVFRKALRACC
Protocol: (§1) LacI synthetic D4 transfected cells were grown in the presence of 100 μM IPTG for 48 hours prior to harvest. Cells grown in 100 mm dishes were rinsed once with 5 mls of ice cold Ca^2+ /Mg^2+ free PBS and scraped into 5 mls of the same buffer. Cells were pelleted (500×g, 5 minutes), and resuspended in 25 mM Tris, 5 mM EDTA, 5 mM EGTA, pH 7.5 (TEE), and frozen in liquid nitrogen. After thawing, the cells were homogenized and centrifuged at 1,000×g to remove nuclei and unbroken cells. The supernatant was centrifuged at 20,000×g, the membrane pellet was washed once with TEE, resuspended in binding buffer, and frozen in liquid nitrogen. Membrane aliquots were stored at -70° C.
(§2) Incubations were for 1 hour at 30° C. Assays were stopped by filtration through Whatman GF/B filters followed by 2×10 ml washes with ice cold 50 mM Tris, pH 7.5. The filters were counted by liquid scintillation spectroscopy.

synthetic D4 receptor [2] = target: T1, synthetic D4 receptor; test: (3H)spiperone radioligand binding, membranes of HEK293 cells expressing synthetic D4 receptor (line D4-24); set-up: expressed in transfected cells; host or cells: HEK293 cells (EBV-based vector pCEP4), line D4-24
Protocol: Each point is the mean of duplicates with non-specific binding subtracted.
as §1, §2

D4 receptors = conditions: CHO cells expressing D4 receptors
Protocol: AMP accumulation was measured in intact D4-19 cells plated at a density of 15,000 cells/well in a 24 well plate 48 hours prior to the experiment. The cells were incubated in serum free medium 1 hour prior to the experiment. Fresh medium (0.5 ml) containing 100 μM forskolin, 100 μM IBMX and varying concentrations of drugs were added to each well and cAMP was allowed to accumulate for 15 minutes at 30° C. The reactions were terminated by the removal of the medium and the addition of 100 μl cold 7.5% (TCA) trichloroacetic acid. The samples were diluted by the addition of 1.0 ml 50 mM sodium acetate, pH 6.2 and aliquots were assayed by RIA using Biomedical Technologies Incorporated cAMP RIA kit.
cAMP accumulation was measured in forskolin stimulated cells as described in methods. Dopamine (10 μM) was added to 3 wells (DA). […] The bars are the averages of the three wells expressed as the percentage of the forskolin response.

schizophrenics = conditions: unlike other antipsychotic drugs; Casey (1989); cited from earlier work

Question: For `O=C(CCCN1CCC2(CC1)C(=O)NCN2c1ccccc1)c1ccc(F)cc1` [(^3 H)-spiperone], which Bmax (synthetic D4 receptor [1]) is on record?
Answer: 260 fmol/mg protein

Question: And the “receptor expression over passages (3H-spiperone binding)” value (synthetic D4 receptor [2]; D4-24 cells, 540 pM 3H-spiperone, up to at least 12 passages over 10 weeks (FIG. 5))?
Answer: remains constant

Question: What about the Bmax (synthetic D4 receptor [2]; Scatchard analysis of saturation binding, line D4-24 (FIG. 4)) of the same compound?
Answer: 736 fmol/mg protein

Question: For `CN1CCN(C2=Nc3cc(Cl)ccc3Nc3ccccc32)CC1` [clozapine], which “antagonism of dopamine inhibition of cAMP accumulation” value (D4 receptors; 10 μM clozapine with 10 μM dopamine (FIG. 6)) is on record?
Answer: Antagonism

Question: What about the tardive dyskinesia (schizophrenics) of the same compound?
Answer: does not cause tardive dyskinesia

Question: For `NCCc1ccc(O)c(O)c1` [dopamine], which “inhibition of cAMP accumulation” value (D4 receptors; 10 μM dopamine, forskolin stimulated (FIG. 6)) is on record?
Answer: Inhibition of cAMP accumulation
